The text below walks through data of patent US20250092033A1, “HETEROAROMATIC NITROGEN-OXIDE COMPOUND, PREPARATION METHOD THEREFOR, AND USE THEREOF” (BEIJING AVISTONE BIOTECHNOLOGY CO., LTD., priority 2021, published 2025).

One experiment concerns Hs746T cell line. In words: Cell proliferation inhibition experiment (CellTiter-Glo), Hs746T. The class given is cell-based. The settings on record: Homo sapiens, Hs 746T, CTG, 72 h. The procedure:
(§1) CellTiter-Glo™ live cell detection kit adopts luciferase as the detection substance, and the luciferase needs the participation of ATP in the luminescence process. CellTiter-Glo™ reagent was added into the cell culture medium and the luminescence value was measured. The light signal is in direct proportion to the amount of ATP in the system, ATP is in direct correlation with number of living cells. Therefore, the proliferation of cells can be detected by detecting the content of ATP with CellTiter-Glo kit.
(§2) In the experiment, the proliferation inhibition effect of the prepared compounds on tumor cell lines Hs746T, EBC-1 and H1993 was measured by a celltiter-glo (CTG) method, and 50% inhibition concentration IC50 was calculated.
(§3) The compounds were determined on the selected cells, the solvent control was set and a total of 10 concentrations were detected, 2 replicates per concentration.
(§4) a) Cells in the logarithmic growth phase were harvested and counted by a […]. The cell viability was detected by a trypan blue exclusion method to ensure that the cell viability was over 90%.
(§5) b) The cell concentration was adjusted; 30 μL of cell suspension was added to a 384-well plate respectively.
(§6) c) Cells in a 384-well plate were incubated overnight at 37° C., 5% CO2 and 95% humidity.
(§7) a) 10 times of drug solution was prepared with the highest concentration of 10 mM, 10 concentrations and 3 times dilution, 10 μL of drug solution was added into each well of a 384-well plate inoculated with cells, and three multiple wells were arranged for each drug concentration. DMSO was the blank control.
(§8) b) The cells in the 384-well plate were incubated for a further 72 h at 37° C., 5% CO2 and 95% humidity before CTG analysis.
(§9) a) The CTG reagent was melted and the cell plate was equilibrated to room temperature for 30 min.
(§10) b) An equal volume of CTG solution was added to each well.
(§11) c) Cells were lysed by shaking on an orbital shaker for 5 minutes.
(§12) d) The cell plate was left at room temperature for 20 minutes to stabilize the luminescence signal.
(§13) e) The cold light value was read.
(§14) The data was analyzed by GraphPad Prism 8 software, and the dose-response curve was fitted with nonlinear S-curve regression, and the IC50 value was calculated therefrom.
(§15) Cell viability(%)=(Lumdrugs to be tested-Lumblank control)/(Lumcell control-Lumblank control)×100%.

The next experiment deals with EBC-1 cell line. In words: Cell proliferation inhibition experiment (CellTiter-Glo), EBC-1. Format: cell-based. The settings on record: Homo sapiens, CTG, 72 h. As to the method:
as §1, §2, §3, §4, §5, §6, §7, §8, §9, §10, §11, §12, §13, §14, §15

Another experiment concerns the target T1, MET D1228N (Homo sapiens, UniProt P08581, D1228N).
T1 construct: purchased Signalchem M52-12IG
In words: Kinase inhibition experiment (HTRF KinEASE-TK kit), mutant MET D1228N. The class given is biochemical. As to conditions: 10 concentrations, 3-fold dilution. The procedure: (§16) The activity of the compounds was determined by detecting the residual amount of ATP after reacting with wild-type or mutant MET protein kinase by using an HTRF KinEASE-TK kit. […]
(§17) The compounds were determined on the selected kinase, the solvent control was set and a total of 10 concentrations were detected, diluted 3-fold, 2 replicates per concentration.
(§18) 1 volume of 5× kinase reaction buffer and 4 volumes of water; 5 mM MgCl2; 1 mM DTT; 1 mM MnCl2; or 2500 nm SEB.
(§19) 1) 10 nl or 4 μlof the diluted compound was transferred to each well of the reaction plate (784075 or 264706, Greiner or Thermo) with a pipette, the reaction plate was sealed with a sealing plate, and centrifuged at 1000 for 1 minute.
(§20) 2) 2× MET was prepared from 1× enzyme reaction buffer, 5 μl or 2 μl kinase was added to each well of the reaction plate, the reaction plate was sealed with a sealing plate, centrifuged at 1000 g for 30 seconds and incubated at room temperature for 10 min.
(§21) 3) a mixed solution of 2× TK-substrate-biotin and ATP were prepared from 1× enzyme reaction buffer solution, 5 μl or 2 μl TK-substrate-biotin/ATP of the mixed solution was added into a reaction plate, the reaction plate was sealed with a sealing plate, centrifuged at 1000 g for 30 seconds and reacted for 50 minutes or 10 minutes at room temperature.
(§22) 4) a mixed solution of 4× or 2× Sa-XL 665 and TK-antibody-Cryptate were prepared from HTRF detection buffer, 5 or 10 μl of the mixed solution of Sa-XL 665 and TK-antibody-Cryptate was added into each well, centrifuged at 1000 g for 30 seconds, and reacted at room temperature for 1 h.
(§23) 5) the fluorescence signals at 615 nm (cryptate) and 665 nm (XL665) were read with Envision 2104 or TECAN.
(§24) The data was analyzed using GraphPad Prism 6.0 or 7 software, and the dose-response curve was fitted with nonlinear S-curve regression, and the IC50 value was calculated therefrom.
(§25) Enzyme Inhibition Percent (%)=100-(Signalmpd-SignalAve_PC)/(SignalAve_VC-SignalAve_PC)×100

A further experiment concerns H1993 cell line. In words: Cell proliferation inhibition experiment (CellTiter-Glo), H1993. Format: cell-based. The settings on record: Homo sapiens, NCI-H1993, CTG, 72 h. The procedure:
as §1, §2, §3, §4, §5, §6, §7, §8, §9, §10, §11, §12, §13, §14, §15

A further experiment deals with T2, MET F1200I (Homo sapiens, UniProt P08581, F1200I).
T2 construct: purchased Signalchem M52-12GG/Y767-2
In words: Kinase inhibition experiment (HTRF KinEASE-TK kit), mutant MET F1200I. Format: biochemical. As to conditions: 10 concentrations, 3-fold dilution. The procedure: as §16, §17, §18, §19, §20, §21, §22, §23, §24, §25

Experiment [1] addresses T3, wild type (WT) MET kinase (Homo sapiens, UniProt P08581).
T3 construct: purchased Carna 08-151
In words: Kinase inhibition experiment (HTRF KinEASE-TK kit), wild-type MET. The class given is biochemical. The settings on record: 10 concentrations, 3-fold dilution. The procedure: as §16, §17, §18, §19, §20, §21, §22, §23, §24, §25

T2 sequence (P08581 25-1390 F1200I): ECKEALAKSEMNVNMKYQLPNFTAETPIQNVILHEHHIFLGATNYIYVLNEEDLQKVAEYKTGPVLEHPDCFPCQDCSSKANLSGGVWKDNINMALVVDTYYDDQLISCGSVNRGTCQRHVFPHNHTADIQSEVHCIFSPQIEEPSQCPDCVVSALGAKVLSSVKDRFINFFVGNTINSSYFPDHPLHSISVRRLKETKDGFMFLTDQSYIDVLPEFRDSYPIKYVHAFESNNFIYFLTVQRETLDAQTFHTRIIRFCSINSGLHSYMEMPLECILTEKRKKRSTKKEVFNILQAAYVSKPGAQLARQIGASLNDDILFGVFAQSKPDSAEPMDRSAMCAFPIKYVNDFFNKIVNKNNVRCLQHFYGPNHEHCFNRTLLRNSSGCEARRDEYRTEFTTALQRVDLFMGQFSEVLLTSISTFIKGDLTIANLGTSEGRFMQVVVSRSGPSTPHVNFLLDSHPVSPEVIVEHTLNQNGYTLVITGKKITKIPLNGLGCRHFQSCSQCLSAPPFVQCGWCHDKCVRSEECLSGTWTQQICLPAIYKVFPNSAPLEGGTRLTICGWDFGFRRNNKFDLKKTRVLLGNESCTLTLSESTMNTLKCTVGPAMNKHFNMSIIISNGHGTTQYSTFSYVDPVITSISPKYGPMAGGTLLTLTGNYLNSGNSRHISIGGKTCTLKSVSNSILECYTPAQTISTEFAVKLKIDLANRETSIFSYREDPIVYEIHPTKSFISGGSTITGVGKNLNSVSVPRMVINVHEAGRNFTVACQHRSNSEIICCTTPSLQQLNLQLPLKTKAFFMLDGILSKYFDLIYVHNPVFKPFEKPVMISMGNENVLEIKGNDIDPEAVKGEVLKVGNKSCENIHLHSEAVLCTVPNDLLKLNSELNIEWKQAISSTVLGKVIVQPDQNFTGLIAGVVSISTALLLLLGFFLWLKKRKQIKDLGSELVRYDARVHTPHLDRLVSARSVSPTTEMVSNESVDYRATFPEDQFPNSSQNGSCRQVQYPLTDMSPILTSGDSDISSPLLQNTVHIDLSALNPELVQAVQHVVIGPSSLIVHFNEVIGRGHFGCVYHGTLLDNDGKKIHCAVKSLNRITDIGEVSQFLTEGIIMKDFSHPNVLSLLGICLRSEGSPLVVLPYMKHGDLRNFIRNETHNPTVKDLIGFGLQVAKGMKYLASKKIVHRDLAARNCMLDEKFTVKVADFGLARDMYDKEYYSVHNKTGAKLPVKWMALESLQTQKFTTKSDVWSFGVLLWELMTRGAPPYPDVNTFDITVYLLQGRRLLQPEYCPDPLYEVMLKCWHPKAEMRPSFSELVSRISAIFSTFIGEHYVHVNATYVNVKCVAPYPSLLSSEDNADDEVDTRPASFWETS
T1 sequence (P08581 25-1390 D1228N): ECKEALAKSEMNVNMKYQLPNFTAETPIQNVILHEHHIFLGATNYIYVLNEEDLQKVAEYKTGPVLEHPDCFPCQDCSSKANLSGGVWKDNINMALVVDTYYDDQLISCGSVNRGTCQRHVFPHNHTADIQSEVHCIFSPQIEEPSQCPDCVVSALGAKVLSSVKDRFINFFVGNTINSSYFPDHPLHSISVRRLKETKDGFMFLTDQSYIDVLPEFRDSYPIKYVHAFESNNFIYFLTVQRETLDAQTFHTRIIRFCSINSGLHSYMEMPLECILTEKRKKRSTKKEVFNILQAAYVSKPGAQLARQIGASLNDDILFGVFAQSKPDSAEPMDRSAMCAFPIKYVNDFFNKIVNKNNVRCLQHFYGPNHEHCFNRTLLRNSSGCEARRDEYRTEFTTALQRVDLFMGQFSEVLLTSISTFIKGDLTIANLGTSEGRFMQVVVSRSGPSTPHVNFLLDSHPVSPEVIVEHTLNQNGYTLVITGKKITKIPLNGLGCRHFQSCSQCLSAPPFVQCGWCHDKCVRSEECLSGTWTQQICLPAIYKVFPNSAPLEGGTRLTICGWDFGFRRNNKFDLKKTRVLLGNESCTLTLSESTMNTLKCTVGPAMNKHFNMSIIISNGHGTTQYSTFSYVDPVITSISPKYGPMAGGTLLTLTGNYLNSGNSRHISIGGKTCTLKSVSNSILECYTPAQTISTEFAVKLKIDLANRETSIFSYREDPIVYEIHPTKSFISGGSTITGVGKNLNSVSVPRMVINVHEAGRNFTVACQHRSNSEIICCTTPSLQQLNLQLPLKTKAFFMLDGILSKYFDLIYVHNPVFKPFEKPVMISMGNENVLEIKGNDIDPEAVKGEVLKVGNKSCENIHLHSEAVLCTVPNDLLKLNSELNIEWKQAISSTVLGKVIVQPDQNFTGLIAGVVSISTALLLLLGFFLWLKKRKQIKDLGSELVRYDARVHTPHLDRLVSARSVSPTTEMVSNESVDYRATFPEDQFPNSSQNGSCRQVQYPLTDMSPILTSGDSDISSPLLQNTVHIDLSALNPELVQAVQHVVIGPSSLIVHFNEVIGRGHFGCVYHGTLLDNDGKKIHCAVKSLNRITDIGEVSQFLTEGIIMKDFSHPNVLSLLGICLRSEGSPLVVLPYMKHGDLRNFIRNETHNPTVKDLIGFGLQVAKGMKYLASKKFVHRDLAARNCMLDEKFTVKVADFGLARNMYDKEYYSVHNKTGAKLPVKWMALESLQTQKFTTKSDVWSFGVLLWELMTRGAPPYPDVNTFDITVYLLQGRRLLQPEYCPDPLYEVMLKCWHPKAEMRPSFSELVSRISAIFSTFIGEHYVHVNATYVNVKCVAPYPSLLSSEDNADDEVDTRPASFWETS
T3 sequence (P08581 25-1390): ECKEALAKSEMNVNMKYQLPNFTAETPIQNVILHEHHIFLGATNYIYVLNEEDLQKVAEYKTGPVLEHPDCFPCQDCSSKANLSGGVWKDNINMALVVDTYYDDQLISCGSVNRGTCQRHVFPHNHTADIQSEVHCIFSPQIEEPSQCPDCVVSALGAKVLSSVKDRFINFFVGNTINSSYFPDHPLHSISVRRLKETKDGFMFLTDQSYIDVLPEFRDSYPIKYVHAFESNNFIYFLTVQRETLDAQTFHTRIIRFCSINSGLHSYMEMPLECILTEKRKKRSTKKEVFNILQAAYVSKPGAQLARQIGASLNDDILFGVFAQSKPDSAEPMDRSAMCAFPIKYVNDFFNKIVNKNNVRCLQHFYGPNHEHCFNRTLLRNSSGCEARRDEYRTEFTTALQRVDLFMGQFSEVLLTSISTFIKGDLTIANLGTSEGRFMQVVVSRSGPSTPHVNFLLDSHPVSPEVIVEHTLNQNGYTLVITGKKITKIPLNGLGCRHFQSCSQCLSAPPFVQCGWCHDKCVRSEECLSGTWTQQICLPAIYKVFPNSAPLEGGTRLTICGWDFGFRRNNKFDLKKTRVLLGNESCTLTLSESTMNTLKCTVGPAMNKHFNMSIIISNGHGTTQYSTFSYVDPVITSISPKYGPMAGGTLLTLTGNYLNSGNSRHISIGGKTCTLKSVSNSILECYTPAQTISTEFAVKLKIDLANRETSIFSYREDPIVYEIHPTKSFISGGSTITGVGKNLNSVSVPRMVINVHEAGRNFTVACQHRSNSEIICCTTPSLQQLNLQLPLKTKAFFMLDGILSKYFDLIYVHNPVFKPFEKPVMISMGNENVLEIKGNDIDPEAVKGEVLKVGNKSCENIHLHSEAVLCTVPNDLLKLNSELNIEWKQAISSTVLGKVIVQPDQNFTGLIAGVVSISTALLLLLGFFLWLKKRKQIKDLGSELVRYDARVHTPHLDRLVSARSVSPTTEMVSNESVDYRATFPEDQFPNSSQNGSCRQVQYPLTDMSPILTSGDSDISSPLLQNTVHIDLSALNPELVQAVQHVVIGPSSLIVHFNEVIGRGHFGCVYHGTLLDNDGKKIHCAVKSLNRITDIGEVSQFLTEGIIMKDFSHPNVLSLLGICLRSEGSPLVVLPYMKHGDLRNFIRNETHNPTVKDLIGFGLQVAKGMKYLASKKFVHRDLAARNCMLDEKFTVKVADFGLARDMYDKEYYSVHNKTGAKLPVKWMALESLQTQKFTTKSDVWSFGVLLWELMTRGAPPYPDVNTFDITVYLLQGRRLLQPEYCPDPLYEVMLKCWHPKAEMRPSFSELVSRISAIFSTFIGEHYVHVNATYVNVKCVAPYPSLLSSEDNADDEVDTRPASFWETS

With `CCc1ccc(C(=O)Nc2ccc(Oc3ccnc4[nH]nc(N[C@H](C)CO)c34)c(F)c2)[n+]([O-])c1-c1ccc(F)cc1` [Final product 80], the IC50 in the experiment on Hs746T cell line worked out at 9.6 nM; in the experiment on EBC-1 cell line, 8.7 nM; at MET D1228N it was 9.8 nM; in the experiment on H1993 cell line, 26.8 nM; at MET F1200I, 2.3 nM; in experiment [1], 1.5 nM.
Consider `C[C@H](CO)Nc1n[nH]c2nccc(Oc3ccc(NC(=O)c4cccc(-c5ccc(F)cc5)[n+]4[O-])cc3Cl)c12` [Final product 97], for which the IC50 turned out to be 12.1 nM with Hs746T cell line; 12.9 nM in the experiment on EBC-1 cell line; 20.8 nM against MET D1228N; 36.4 nM with H1993 cell line; 7 nM against MET F1200I; 3.3 nM in experiment [1].
`CC[C@H](CO)Nc1n[nH]c2nccc(Oc3ccc(NC(=O)c4ccc(Cl)c(-c5ccc(F)cc5)[n+]4[O-])cc3F)c12` [Final product 58]: the IC50 in the experiment on Hs746T cell line was 12.8 nM; with EBC-1 cell line, 13.2 nM; against MET D1228N, 15.9 nM; in the experiment with H1993 cell line it was 16.4 nM; against MET F1200I, 16.1 nM; in experiment [1] it was 4.9 nM.
As for `Cc1ccc(C(=O)Nc2ccc(Oc3ccnc4[nH]nc(NCC(O)CO)c34)c(F)c2)[n+]([O-])c1-c1ccc(F)cc1` (centres unmarked) [Final product 69], the IC50 in the experiment on Hs746T cell line worked out at 19.6 nM; with EBC-1 cell line, 29.3 nM; at MET D1228N, 25.4 nM; with H1993 cell line, 68.4 nM; against MET F1200I it was 12.3 nM; in experiment [1], 3 nM.
As for `Cc1ccc(C(=O)Nc2ccc(Oc3ccnc4[nH]nc(N[C@H](C)CO)c34)c(Cl)c2)[n+]([O-])c1-c1ccc(F)cc1` [Final product 124], the IC50 in the experiment with Hs746T cell line was found to be 21.9 nM; in the experiment with EBC-1 cell line it was 14.9 nM; against MET D1228N, 7.6 nM; in the experiment with H1993 cell line, 29.9 nM; on MET F1200I, 0.8 nM; in experiment [1] it was 0.8 nM.
As for `C[C@H](CO)Nc1n[nH]c2nccc(Oc3ccc(NC(=O)c4cccc(-c5ccc(F)cc5)[n+]4[O-])cc3F)c12` [Final Product 2, (R)-2-((3-fluoro-4-((3-((1-hydroxypropan-2-yl)amino)-1H-pyrazolo[3,4-b]pyridin-4-yl)oxy)phenyl)carbamoyl)-6-(4-fluorophenyl)pyridine 1-oxide], the IC50 came out at 8.5 nM in the experiment on Hs746T cell line; 12.6 nM in the experiment on EBC-1 cell line; 18 nM against MET D1228N; 31.8 nM with H1993 cell line; 3 nM against MET F1200I; 0.9 nM in experiment [1].
`O=C(Nc1ccc(Oc2ccnc3[nH]nc(N4CCC(CO)CC4)c23)c(F)c1)c1cccc(-c2ccc(F)cc2)[n+]1[O-]` [Final product 28]: the IC50 in the experiment with Hs746T cell line stood at 14 nM; in the experiment on EBC-1 cell line it was 17.1 nM; against MET D1228N, 34.5 nM; on MET F1200I it was 9.6 nM; in experiment [1] it was 3 nM.
Take `Cc1ccc(C(=O)Nc2ccc(Oc3ccnc4[nH]nc(NCC5(O)CC5)c34)c(F)c2)[n+]([O-])c1-c1ccc(F)cc1` [Final product 70]: the IC50 with Hs746T cell line is 24.4 nM; against MET D1228N, 35.5 nM; in the experiment on H1993 cell line, 12 nM; in experiment [1], 6.9 nM.
For `CC(C)(O)CNc1n[nH]c2nccc(Oc3ccc(NC(=O)c4cccc(-c5ccc(F)cc5)[n+]4[O-])cc3F)c12` [Final product 10], the IC50 in the experiment with Hs746T cell line amounted to 29.1 nM; with EBC-1 cell line, 52.5 nM; against MET D1228N it was 13.6 nM; against MET F1200I it was 30.9 nM; in experiment [1], 4.7 nM.
On to `O=C(Nc1ccc(Oc2ccnc3[nH]nc(NCC(O)CO)c23)c(F)c1)c1cccc(-c2ccc(F)cc2)[n+]1[O-]` (centres unmarked) [Final product 15], for which the IC50 turned out to be 21.6 nM with Hs746T cell line; 20.1 nM against MET D1228N; 39.4 nM with H1993 cell line; 6.5 nM against MET F1200I; 1.3 nM in experiment [1].
As to `CC[C@H](CO)Nc1n[nH]c2nccc(Oc3ccc(NC(=O)c4cccc(-c5ccc(F)cc5)[n+]4[O-])cc3F)c12` [Final product 5], the IC50 at MET D1228N amounted to 12.8 nM; with H1993 cell line it was 33 nM; on MET F1200I, 10.8 nM; in experiment [1], 5.2 nM.
The like results for `O=C(Nc1ccc(Oc2ccnc3[nH]nc(N4CC(CO)C4)c23)c(F)c1)c1cccc(-c2ccc(F)cc2)[n+]1[O-]` [Final product 25] were, in that order, 20.5 nM, 62.2 nM, 4.3 nM and 1.9 nM.
The corresponding values for `C[C@H](CO)Nc1n[nH]c2nccc(Oc3ccc(NC(=O)c4ccc(OC(F)F)c(-c5ccc(F)cc5)[n+]4[O-])cc3Cl)c12` [Final product 139] are 18.5 nM, 31.1 nM, 15.3 nM and 4.5 nM.
`O=C(Nc1ccc(Oc2ccnc3[nH]nc(N[C@@H]4CCC(O)C4)c23)c(F)c1)c1ccc(Cl)c(-c2ccc(F)cc2)[n+]1[O-]` (some centres unmarked) [Final product 63]: the IC50 with Hs746T cell line was 4.6 nM; in the experiment on EBC-1 cell line, 13.4 nM; against MET D1228N, 26.6 nM; against MET F1200I, 13.1 nM; in experiment [1], 4.7 nM.
Turning to `O=C(Nc1ccc(Oc2ccnc3[nH]nc(NCC(CO)CO)c23)c(F)c1)c1cccc(-c2ccc(F)cc2)[n+]1[O-]` [Final product 17], the IC50 at MET D1228N was 7.5 nM; in the experiment on H1993 cell line it was 68.4 nM; on MET F1200I it was 5.8 nM; in experiment [1] it was 1.4 nM.
The like results for `CC(O)C1CCN(c2n[nH]c3nccc(Oc4ccc(NC(=O)c5cccc(-c6ccc(F)cc6)[n+]5[O-])cc4F)c23)CC1` (centres unmarked) [Final product 31] were, in that order, 40.7 nM, 35 nM, 7.9 nM and 3 nM.
Consider `O=C(Nc1ccc(Oc2ccnc3[nH]nc(N4CC5(CC(O)C5)C4)c23)c(F)c1)c1cccc(-c2ccc(F)cc2)[n+]1[O-]` [Final product 36], for which the IC50 in the experiment on Hs746T cell line came to 9.9 nM; in the experiment on EBC-1 cell line it was 15.1 nM; against MET D1228N, 25.1 nM; against MET F1200I, 6.7 nM; in experiment [1] it was 4 nM.
The like results for `O=C(Nc1ccc(Oc2ccnc3[nH]nc(NC4COCC4O)c23)c(F)c1)c1cccc(-c2ccc(F)cc2)[n+]1[O-]` (centres unmarked) [Final product 24] were, in that order, 14.5 nM, 20.1 nM, 29.5 nM, 9.5 nM and 2.5 nM.
In the case of `O=C(Nc1ccc(Oc2ncnc3ccn(CCCO)c23)c(F)c1)c1cccc(-c2ccc(F)cc2)[n+]1[O-]` [Final product 168, 2-((3-fluoro-4-((5-(3-hydroxypropyl)-5H-pyrrolo[3,2-d]pyrimidin-4-yl)oxy)phenyl)carbamoyl)-6-(4-fluorophenyl)pyridine 1-oxide], the concentration for half-maximal inhibition (IC50) in the experiment with Hs746T cell line came to 65.4 nM; in the experiment with EBC-1 cell line, 56.7 nM; against MET D1228N, 13.9 nM; against MET F1200I it was 9.2 nM; in experiment [1], 3.8 nM.
